In ChEMBL document CHEMBL3232829, “Synthesis and multitarget biological profiling of a novel family of rhein derivatives as disease-modifying anti-Alzheimer agents” (J Med Chem, 2014):
Calls of active or inactive are those of the source. The rule behind the calls is not given here.

target: Microtubule-associated protein tau (Homo sapiens) (UniProt P10636); assay: Inhibition of aggregation of tau protein (unknown origin) expressed in Escherichia coli BL21 (DE3) assessed as amyloid fibril formation at 10 uM after 24 hrs by thioflavin S fluorescence method; conditions: not given
Sequence (P10636 whole entry): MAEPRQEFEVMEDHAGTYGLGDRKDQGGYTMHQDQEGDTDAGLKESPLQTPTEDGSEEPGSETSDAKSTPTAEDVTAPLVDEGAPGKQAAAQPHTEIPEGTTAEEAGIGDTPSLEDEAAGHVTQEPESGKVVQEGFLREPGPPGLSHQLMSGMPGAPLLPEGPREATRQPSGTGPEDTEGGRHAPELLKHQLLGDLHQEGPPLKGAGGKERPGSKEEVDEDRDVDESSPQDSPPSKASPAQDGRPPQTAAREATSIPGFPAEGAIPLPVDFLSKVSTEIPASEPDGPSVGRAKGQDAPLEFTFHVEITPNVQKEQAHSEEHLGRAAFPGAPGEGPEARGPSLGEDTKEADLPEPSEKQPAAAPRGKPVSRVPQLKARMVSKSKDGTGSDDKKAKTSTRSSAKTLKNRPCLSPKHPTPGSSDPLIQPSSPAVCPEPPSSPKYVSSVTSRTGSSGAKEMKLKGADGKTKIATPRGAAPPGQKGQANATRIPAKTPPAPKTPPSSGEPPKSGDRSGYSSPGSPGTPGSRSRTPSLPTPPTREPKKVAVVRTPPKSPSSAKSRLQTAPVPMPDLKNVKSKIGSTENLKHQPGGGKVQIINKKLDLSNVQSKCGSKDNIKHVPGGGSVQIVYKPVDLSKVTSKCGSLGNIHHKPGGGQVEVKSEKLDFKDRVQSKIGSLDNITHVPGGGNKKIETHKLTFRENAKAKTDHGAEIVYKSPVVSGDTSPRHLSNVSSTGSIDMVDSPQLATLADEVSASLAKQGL

Row | Compound | inhibition
1 | CC1=CC2Cc3nc4cc(Cl)ccc4c(NCCCCCCCCCNC(=O)c4cc(O)c5c(c4)C(=O)c4cccc(O)c4C5=O)c3C(C1)C2.Cl (racemic) | 29.6%
2 | CC1=CC2Cc3nc4cc(Cl)ccc4c(N)c3C(C1)C2.Cl (racemic) | inactive

More lines, now with the values ahead:

Row | inhibition | Compound
3 | 23.1% | CC1=CC2Cc3nc4cc(Cl)ccc4c(NCc4ccc(CNC(=O)c5cc(O)c6c(c5)C(=O)c5cccc(O)c5C6=O)cc4)c3C(C1)C2.Cl (racemic)
4 | 46.3% | CC1=CC2Cc3nc4cc(Cl)ccc4c(NCCCCCCCCCCCNC(=O)c4cc(O)c5c(c4)C(=O)c4cccc(O)c4C5=O)c3C(C1)C2.Cl (racemic)
5 | 57.1% | CC1=CC2Cc3nc4cc(Cl)ccc4c(NCCCCCCCCCCNC(=O)c4cc(O)c5c(c4)C(=O)c4cccc(O)c4C5=O)c3C(C1)C2.Cl (racemic)
6 | 29.2% | CC1=CC2Cc3nc4cc(Cl)ccc4c(NCCCCCCCCNC(=O)c4cc(O)c5c(c4)C(=O)c4cccc(O)c4C5=O)c3C(C1)C2.Cl (racemic)

target: Amyloid-beta precursor protein (Homo sapiens) (UniProt P05067); assay: Inhibition of aggregation of amyloid beta-42 (unknown origin) expressed in Escherichia coli BL21 (DE3) assessed as amyloid fibril formation at 10 uM after 24 hrs by thioflavin S fluorescence method; conditions: not given
Sequence (P05067 whole entry): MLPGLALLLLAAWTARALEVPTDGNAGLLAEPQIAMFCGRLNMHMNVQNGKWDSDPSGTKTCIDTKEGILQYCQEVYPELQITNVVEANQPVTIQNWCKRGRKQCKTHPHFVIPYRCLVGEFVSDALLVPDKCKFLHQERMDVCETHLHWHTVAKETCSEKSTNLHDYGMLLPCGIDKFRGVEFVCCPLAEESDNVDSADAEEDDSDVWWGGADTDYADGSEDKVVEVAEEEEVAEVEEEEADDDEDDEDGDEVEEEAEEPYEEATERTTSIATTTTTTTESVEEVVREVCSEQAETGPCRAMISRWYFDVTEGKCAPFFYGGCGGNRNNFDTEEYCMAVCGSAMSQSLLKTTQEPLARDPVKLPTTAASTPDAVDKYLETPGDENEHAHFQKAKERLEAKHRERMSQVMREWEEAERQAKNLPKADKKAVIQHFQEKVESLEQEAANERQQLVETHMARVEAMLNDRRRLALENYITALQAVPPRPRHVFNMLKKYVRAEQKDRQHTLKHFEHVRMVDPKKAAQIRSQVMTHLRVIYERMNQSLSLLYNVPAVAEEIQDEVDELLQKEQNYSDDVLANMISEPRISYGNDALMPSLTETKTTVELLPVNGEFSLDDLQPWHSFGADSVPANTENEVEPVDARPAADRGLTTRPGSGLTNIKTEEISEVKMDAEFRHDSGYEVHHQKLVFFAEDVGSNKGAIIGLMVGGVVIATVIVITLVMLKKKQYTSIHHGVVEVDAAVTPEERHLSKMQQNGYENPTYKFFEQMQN

Row | Compound | inhibition
7 | CC1=CC2Cc3nc4cc(Cl)ccc4c(NCCCCCCCCCNC(=O)c4cc(O)c5c(c4)C(=O)c4cccc(O)c4C5=O)c3C(C1)C2.Cl (racemic) | 47.9%
8 | CC1=CC2Cc3nc4cc(Cl)ccc4c(N)c3C(C1)C2.Cl (racemic) | inactive

Further lines, results first:

Row | inhibition | Compound
9 | 57.9% | CC1=CC2Cc3nc4cc(Cl)ccc4c(NCc4ccc(CNC(=O)c5cc(O)c6c(c5)C(=O)c5cccc(O)c5C6=O)cc4)c3C(C1)C2.Cl (racemic)
10 | 40.7% | CC1=CC2Cc3nc4cc(Cl)ccc4c(NCCCCCCCCCCCNC(=O)c4cc(O)c5c(c4)C(=O)c4cccc(O)c4C5=O)c3C(C1)C2.Cl (racemic)
11 | 43.3% | CC1=CC2Cc3nc4cc(Cl)ccc4c(NCCCCCCCCCCNC(=O)c4cc(O)c5c(c4)C(=O)c4cccc(O)c4C5=O)c3C(C1)C2.Cl (racemic)
12 | 50.2% | CC1=CC2Cc3nc4cc(Cl)ccc4c(NCCCCCCCCNC(=O)c4cc(O)c5c(c4)C(=O)c4cccc(O)c4C5=O)c3C(C1)C2.Cl (racemic)

system: not listed separately; assay: Permeability of the compound by PAMPA assay; assay type: physicochemical; conditions: read-out: permeability

Row | Compound | Papp
13 | CC1=C[C@H]2Cc3nc4cc(Cl)ccc4c(N)c3[C@@H](C1)C2.Cl | 25.4 ×10⁻⁶ cm/s
14 | CC1=CC2Cc3nc4cc(Cl)ccc4c(NCCCCCCCCCNC(=O)c4cc(O)c5c(c4)C(=O)c4cccc(O)c4C5=O)c3C(C1)C2.Cl (racemic) | 21.5 ×10⁻⁶ cm/s

Next, values leading:

Row | Papp | Compound
15 | 16.3 ×10⁻⁶ cm/s | CC1=CC2Cc3nc4cc(Cl)ccc4c(NCc4ccc(CNC(=O)c5cc(O)c6c(c5)C(=O)c5cccc(O)c5C6=O)cc4)c3C(C1)C2.Cl (racemic)
16 | 16.4 ×10⁻⁶ cm/s | CC1=CC2Cc3nc4cc(Cl)ccc4c(NCCCCCCCCCCCNC(=O)c4cc(O)c5c(c4)C(=O)c4cccc(O)c4C5=O)c3C(C1)C2.Cl (racemic)
17 | 18.1 ×10⁻⁶ cm/s | CC1=CC2Cc3nc4cc(Cl)ccc4c(NCCCCCCCCCCNC(=O)c4cc(O)c5c(c4)C(=O)c4cccc(O)c4C5=O)c3C(C1)C2.Cl (racemic)
18 | 22.4 ×10⁻⁶ cm/s | CC1=CC2Cc3nc4cc(Cl)ccc4c(NCCCCCCCCNC(=O)c4cc(O)c5c(c4)C(=O)c4cccc(O)c4C5=O)c3C(C1)C2.Cl (racemic)

target: Beta-secretase 1 (Homo sapiens, UniProt P56817); assay: Inhibition of human recombinant BACE1 using methoxycoumarin-Ser-Glu-Val-Asn-Leu-Asp-Ala-Glu-Phe-Lys-dinitrophenyl as substrate preincubated for 1 hr by FRET assay; conditions: read-out: IC50
Sequence (P56817 whole entry): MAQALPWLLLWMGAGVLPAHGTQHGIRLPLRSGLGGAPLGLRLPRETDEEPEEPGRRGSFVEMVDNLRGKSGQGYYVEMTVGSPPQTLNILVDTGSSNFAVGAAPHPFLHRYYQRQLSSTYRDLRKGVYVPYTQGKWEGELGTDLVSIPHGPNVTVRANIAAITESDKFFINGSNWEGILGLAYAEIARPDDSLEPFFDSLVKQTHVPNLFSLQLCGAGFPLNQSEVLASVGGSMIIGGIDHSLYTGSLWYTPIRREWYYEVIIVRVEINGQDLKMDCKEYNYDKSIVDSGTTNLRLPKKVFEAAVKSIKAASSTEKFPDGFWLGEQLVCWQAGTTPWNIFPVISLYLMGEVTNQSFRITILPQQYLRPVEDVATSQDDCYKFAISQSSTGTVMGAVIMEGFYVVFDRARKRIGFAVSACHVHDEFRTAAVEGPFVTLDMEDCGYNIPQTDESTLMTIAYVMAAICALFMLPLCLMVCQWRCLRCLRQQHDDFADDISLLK

Row | Compound | IC50
19 | CC1=C[C@H]2Cc3nc4cc(Cl)ccc4c(N)c3[C@@H](C1)C2.Cl | > 5 µM
20 | CC1=CC2Cc3nc4cc(Cl)ccc4c(NCCCCCCCCCNC(=O)c4cc(O)c5c(c4)C(=O)c4cccc(O)c4C5=O)c3C(C1)C2.Cl (racemic) | 0.12 µM

More lines, now with the values ahead:

Row | IC50 | Compound
21 | 2.02 µM | CC1=CC2Cc3nc4cc(Cl)ccc4c(NCc4ccc(CNC(=O)c5cc(O)c6c(c5)C(=O)c5cccc(O)c5C6=O)cc4)c3C(C1)C2.Cl (racemic)
22 | 1.2 µM | CC1=CC2Cc3nc4cc(Cl)ccc4c(NCCCCCCCCCCCNC(=O)c4cc(O)c5c(c4)C(=O)c4cccc(O)c4C5=O)c3C(C1)C2.Cl (racemic)
23 | 1.19 µM | CC1=CC2Cc3nc4cc(Cl)ccc4c(NCCCCCCCCCCNC(=O)c4cc(O)c5c(c4)C(=O)c4cccc(O)c4C5=O)c3C(C1)C2.Cl (racemic)
24 | 0.98 µM | CC1=CC2Cc3nc4cc(Cl)ccc4c(NCCCCCCCCNC(=O)c4cc(O)c5c(c4)C(=O)c4cccc(O)c4C5=O)c3C(C1)C2.Cl (racemic)

target: Amyloid-beta precursor protein (Homo sapiens) (UniProt P05067); assay: Inhibition of amyloid beta-42 (unknown origin) aggregation assessed as amyloid fibril formation at 10 uM after 24 hrs by thioflavin T fluorescence method; conditions: not given

Row | Compound | inhibition
25 | CC1=C[C@H]2Cc3nc4cc(Cl)ccc4c(N)c3[C@@H](C1)C2.Cl | 13.2%
26 | CC1=CC2Cc3nc4cc(Cl)ccc4c(NCCCCCCCCCNC(=O)c4cc(O)c5c(c4)C(=O)c4cccc(O)c4C5=O)c3C(C1)C2.Cl (racemic) | 38%

Now from value to compound:

Row | inhibition | Compound
27 | 32.4% | CC1=CC2Cc3nc4cc(Cl)ccc4c(NCc4ccc(CNC(=O)c5cc(O)c6c(c5)C(=O)c5cccc(O)c5C6=O)cc4)c3C(C1)C2.Cl (racemic)
28 | 35.3% | CC1=CC2Cc3nc4cc(Cl)ccc4c(NCCCCCCCCCCCNC(=O)c4cc(O)c5c(c4)C(=O)c4cccc(O)c4C5=O)c3C(C1)C2.Cl (racemic)
29 | 40.9% | CC1=CC2Cc3nc4cc(Cl)ccc4c(NCCCCCCCCCCNC(=O)c4cc(O)c5c(c4)C(=O)c4cccc(O)c4C5=O)c3C(C1)C2.Cl (racemic)
30 | 33.1% | CC1=CC2Cc3nc4cc(Cl)ccc4c(NCCCCCCCCNC(=O)c4cc(O)c5c(c4)C(=O)c4cccc(O)c4C5=O)c3C(C1)C2.Cl (racemic)
